Test results taken from the kinase profiling compilation of Christmann-Franck et al. (2016).

Legend:
Test in all cases: radiometric filter-binding kinase assay
CSNK2A1 (human) = CSNK2A1 (human) (UniProt P68400)
SRC (human) = SRC (human) (UniProt P12931)
AURKA (human) = AURKA (human) (UniProt O14965)
SRPK1 (human) = SRPK1 (human) (UniProt Q96SB4)
MARK4 (human) = MARK4 (human) (UniProt Q96L34)
[1] = system: RPS6KB1 (human), P23443 [T412E]
PRKCA (human) = PRKCA (human) (UniProt P17252)
IKBKB (human) = IKBKB (human) (UniProt O14920)
PIM1 (human) = PIM1 (human) (UniProt P11309)
PLK1 (human) = PLK1 (human) (UniProt P53350)
MAPK9 (human) = MAPK9 (human) (UniProt P45984)
FLT1 (human) = FLT1 (human) (UniProt P17948)
HIPK1 (human) = HIPK1 (human) (UniProt Q86Z02)
MAPK11 (human) = MAPK11 (human) (UniProt Q15759)
TBK1 (human) = TBK1 (human) (UniProt Q9UHD2)
MAPK1 (human) = MAPK1 (human) (UniProt P28482)
NEK2 (human) = NEK2 (human) (UniProt P51955)
DYRK1A (human) = DYRK1A (human) (UniProt Q13627)
MAP2K1 (human) = MAP2K1 (human) (UniProt Q02750)
PIM3 (human) = PIM3 (human) (UniProt Q86V86)
MST4 (human) = MST4 (human) (UniProt Q9P289)
AURKB (human) = AURKB (human) (UniProt Q96GD4)
GCK (human) = GCK (human) (UniProt Q12851)
PKN2 (human) = PKN2 (human) (UniProt Q16513)
MARK2 (human) = MARK2 (human) (UniProt Q7KZI7)
DYRK3 (human) = DYRK3 (human) (UniProt O43781)
TTK (human) = TTK (human) (UniProt P33981)
GSK3B (human) = GSK3B (human) (UniProt P49841)
MAPKAPK3 (human) = MAPKAPK3 (human) (UniProt Q16644)

Chain of PIM1 (human) (P11309 whole entry, looked up): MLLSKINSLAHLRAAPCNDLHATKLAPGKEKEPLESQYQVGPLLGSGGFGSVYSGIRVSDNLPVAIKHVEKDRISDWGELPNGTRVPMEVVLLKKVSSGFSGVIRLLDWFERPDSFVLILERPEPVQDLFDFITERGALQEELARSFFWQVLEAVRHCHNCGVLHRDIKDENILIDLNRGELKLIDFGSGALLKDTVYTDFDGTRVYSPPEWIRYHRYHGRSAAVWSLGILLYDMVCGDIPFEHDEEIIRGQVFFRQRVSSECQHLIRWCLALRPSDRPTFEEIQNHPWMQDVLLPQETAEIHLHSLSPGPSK
Chain of HIPK1 (human) (Q86Z02 whole entry, looked up): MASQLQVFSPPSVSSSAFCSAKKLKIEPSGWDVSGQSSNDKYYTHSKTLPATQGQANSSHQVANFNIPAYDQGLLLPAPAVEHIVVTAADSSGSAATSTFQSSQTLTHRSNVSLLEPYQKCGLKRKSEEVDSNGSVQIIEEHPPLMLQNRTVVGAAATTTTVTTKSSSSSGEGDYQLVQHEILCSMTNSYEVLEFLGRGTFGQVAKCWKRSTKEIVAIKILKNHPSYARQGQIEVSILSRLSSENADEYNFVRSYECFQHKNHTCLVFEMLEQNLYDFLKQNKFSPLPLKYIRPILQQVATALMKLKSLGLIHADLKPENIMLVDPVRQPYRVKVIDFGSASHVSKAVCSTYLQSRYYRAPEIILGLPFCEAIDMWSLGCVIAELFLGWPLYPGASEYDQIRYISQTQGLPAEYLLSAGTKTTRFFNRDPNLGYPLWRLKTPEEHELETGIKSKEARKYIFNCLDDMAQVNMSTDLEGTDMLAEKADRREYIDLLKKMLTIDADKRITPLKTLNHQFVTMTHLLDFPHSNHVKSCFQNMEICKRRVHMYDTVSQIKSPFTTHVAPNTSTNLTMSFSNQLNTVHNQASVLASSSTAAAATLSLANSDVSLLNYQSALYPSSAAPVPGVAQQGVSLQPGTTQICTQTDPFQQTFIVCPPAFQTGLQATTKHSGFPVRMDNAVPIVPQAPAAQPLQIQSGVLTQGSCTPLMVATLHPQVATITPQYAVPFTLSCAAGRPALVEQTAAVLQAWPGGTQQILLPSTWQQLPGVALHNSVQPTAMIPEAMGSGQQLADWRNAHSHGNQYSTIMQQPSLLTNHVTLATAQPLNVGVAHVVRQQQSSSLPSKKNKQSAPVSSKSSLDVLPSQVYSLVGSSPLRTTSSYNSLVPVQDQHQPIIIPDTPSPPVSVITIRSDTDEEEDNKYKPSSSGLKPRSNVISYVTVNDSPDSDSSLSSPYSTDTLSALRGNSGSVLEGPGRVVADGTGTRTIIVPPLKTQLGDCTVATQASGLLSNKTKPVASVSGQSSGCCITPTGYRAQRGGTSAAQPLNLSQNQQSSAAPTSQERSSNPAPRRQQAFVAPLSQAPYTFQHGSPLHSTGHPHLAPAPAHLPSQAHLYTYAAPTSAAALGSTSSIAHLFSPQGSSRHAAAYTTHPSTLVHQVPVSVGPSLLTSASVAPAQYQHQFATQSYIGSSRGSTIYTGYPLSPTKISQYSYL
Chain of CSNK2A1 (human) (P68400 whole entry, looked up): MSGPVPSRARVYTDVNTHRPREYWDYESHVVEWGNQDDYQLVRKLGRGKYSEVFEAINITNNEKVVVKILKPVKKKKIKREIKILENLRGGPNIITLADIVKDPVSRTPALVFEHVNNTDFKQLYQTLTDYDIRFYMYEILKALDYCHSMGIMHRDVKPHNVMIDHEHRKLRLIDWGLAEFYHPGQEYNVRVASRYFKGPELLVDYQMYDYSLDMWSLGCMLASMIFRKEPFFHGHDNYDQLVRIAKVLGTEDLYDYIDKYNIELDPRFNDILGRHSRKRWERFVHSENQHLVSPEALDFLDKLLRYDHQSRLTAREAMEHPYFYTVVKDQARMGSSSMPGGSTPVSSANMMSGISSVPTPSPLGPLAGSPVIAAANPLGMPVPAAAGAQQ
Chain of MAP2K1 (human) (Q02750 whole entry, looked up): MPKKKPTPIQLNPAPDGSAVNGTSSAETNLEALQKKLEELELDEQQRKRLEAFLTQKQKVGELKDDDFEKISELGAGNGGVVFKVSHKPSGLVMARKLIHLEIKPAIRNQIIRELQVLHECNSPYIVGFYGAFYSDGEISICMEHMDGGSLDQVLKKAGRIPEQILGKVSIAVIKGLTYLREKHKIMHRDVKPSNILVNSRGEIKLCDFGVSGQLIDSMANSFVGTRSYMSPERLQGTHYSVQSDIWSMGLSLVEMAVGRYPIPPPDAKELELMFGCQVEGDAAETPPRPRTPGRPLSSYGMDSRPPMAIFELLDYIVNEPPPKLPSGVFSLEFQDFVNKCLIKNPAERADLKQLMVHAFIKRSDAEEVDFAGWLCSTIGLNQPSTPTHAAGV
Chain of IKBKB (human) (O14920 whole entry, looked up): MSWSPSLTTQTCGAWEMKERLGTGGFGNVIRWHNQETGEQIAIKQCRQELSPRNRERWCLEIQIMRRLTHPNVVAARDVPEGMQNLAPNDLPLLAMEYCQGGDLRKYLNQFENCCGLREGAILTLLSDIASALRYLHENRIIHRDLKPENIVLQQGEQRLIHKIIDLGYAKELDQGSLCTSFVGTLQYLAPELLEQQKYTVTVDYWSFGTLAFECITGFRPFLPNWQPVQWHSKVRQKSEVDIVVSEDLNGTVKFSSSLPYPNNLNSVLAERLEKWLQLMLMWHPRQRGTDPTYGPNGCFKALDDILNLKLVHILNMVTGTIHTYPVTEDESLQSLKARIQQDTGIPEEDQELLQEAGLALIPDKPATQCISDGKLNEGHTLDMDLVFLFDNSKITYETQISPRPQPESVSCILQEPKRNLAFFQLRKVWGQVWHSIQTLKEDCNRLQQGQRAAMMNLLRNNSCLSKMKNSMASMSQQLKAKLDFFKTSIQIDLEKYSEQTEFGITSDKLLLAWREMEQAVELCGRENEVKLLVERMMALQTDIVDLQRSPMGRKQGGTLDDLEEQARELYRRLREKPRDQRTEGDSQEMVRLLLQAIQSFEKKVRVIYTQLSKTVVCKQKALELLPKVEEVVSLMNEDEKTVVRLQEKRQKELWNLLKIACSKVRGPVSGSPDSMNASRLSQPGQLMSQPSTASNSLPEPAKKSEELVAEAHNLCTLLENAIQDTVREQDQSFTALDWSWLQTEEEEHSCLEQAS
Chain of GCK (human) (Q12851 whole entry, looked up): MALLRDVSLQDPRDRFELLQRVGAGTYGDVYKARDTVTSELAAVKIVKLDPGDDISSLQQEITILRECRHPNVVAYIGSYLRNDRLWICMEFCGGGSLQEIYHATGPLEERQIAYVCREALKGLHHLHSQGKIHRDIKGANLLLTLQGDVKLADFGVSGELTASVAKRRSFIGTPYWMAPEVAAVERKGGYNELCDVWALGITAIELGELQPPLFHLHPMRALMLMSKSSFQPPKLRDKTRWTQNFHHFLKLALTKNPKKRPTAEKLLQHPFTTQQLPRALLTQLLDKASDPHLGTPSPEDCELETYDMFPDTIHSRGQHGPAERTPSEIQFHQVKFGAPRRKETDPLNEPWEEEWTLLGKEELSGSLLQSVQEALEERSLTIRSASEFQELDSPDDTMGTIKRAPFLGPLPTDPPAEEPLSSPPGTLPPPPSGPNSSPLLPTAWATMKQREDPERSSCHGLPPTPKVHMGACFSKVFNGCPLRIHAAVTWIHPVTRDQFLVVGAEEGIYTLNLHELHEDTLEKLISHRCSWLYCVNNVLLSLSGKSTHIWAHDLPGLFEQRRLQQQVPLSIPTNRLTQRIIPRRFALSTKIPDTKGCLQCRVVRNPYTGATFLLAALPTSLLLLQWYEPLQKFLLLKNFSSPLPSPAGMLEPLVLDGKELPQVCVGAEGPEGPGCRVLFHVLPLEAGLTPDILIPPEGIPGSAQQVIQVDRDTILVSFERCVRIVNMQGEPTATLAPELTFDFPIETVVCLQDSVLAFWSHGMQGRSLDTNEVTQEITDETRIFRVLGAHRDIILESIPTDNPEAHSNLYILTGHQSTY
Chain of TBK1 (human) (Q9UHD2 whole entry, looked up): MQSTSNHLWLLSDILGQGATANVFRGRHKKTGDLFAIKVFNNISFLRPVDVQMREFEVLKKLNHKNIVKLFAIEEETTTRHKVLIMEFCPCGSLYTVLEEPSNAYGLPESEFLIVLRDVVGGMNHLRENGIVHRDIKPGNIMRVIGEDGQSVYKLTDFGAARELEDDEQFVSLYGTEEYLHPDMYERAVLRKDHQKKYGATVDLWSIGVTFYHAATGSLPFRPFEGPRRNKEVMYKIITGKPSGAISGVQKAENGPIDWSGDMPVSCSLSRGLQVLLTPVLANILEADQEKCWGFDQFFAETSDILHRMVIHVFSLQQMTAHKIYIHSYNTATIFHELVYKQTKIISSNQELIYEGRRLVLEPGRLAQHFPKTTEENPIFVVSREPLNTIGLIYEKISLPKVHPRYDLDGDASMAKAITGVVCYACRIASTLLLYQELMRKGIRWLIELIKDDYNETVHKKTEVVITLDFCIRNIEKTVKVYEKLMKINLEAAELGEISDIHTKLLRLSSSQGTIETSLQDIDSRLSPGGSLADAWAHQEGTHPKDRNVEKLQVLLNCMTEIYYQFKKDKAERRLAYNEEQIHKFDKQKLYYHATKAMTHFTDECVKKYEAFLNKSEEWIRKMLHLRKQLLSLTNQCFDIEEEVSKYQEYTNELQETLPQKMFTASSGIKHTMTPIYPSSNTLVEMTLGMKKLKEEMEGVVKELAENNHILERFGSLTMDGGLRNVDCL

Q: With `CNc1nc(-c2ccc3c(N)n[nH]c3c2)cc(N2C[C@@H](C(=O)NC3CCCCC3)CC[C@H]2C)n1` as the molecule, how does the residual activity (CSNK2A1 (human); compound 0.01 µM) read?
A: Its residual activity is 103%.

Q: And the residual activity (CSNK2A1 (human); compound 0.1 µM)?
A: The residual activity was 104%.

Q: What about the residual activity (CSNK2A1 (human); compound 1.0 µM) of the same molecule?
A: The residual activity was 94%.

Q: And the residual activity (SRC (human); compound 0.01 µM)?
A: Its residual activity is 101%.

Q: And the residual activity (SRC (human); compound 0.1 µM)?
A: The residual activity was 105%.

Q: What about the residual activity (SRC (human); compound 1.0 µM) of the same molecule?
A: Its residual activity is 97%.

Q: What about the residual activity (AURKA (human); compound 0.01 µM) of the same molecule?
A: The residual activity was 112%.

Q: And the residual activity (AURKA (human); compound 0.1 µM)?
A: Its residual activity is 115%.

Q: What about the residual activity (AURKA (human); compound 1.0 µM) of the same molecule?
A: The residual activity was 92%.

Q: And the residual activity (SRPK1 (human); compound 0.01 µM)?
A: Its residual activity is 106%.

Q: And the residual activity (SRPK1 (human); compound 0.1 µM)?
A: Its residual activity is 120%.

Q: What about the residual activity (SRPK1 (human); compound 1.0 µM) of the same molecule?
A: The residual activity was 106%.

Q: What about the residual activity (MARK4 (human); compound 0.01 µM) of the same molecule?
A: The residual activity was 106%.

Q: And the residual activity (MARK4 (human); compound 0.1 µM)?
A: Its residual activity is 114%.

Q: What about the residual activity (MARK4 (human); compound 1.0 µM) of the same molecule?
A: Its residual activity is 102%.

Q: What about the residual activity ([1]; compound 0.01 µM) of the same molecule?
A: Its residual activity is 111%.

Q: And the residual activity ([1]; compound 0.1 µM)?
A: Its residual activity is 106%.

Q: What about the residual activity ([1]; compound 1.0 µM) of the same molecule?
A: The residual activity was 100%.

Q: What about the residual activity (PRKCA (human); compound 0.01 µM) of the same molecule?
A: The residual activity was 104%.

Q: What about the residual activity (PRKCA (human); compound 0.1 µM) of the same molecule?
A: The residual activity was 105%.

Q: What about the residual activity (PRKCA (human); compound 1.0 µM) of the same molecule?
A: The residual activity was 94%.

Q: And the residual activity (IKBKB (human); compound 0.01 µM)?
A: The residual activity was 105%.

Q: And the residual activity (IKBKB (human); compound 0.1 µM)?
A: The residual activity was 112%.

Q: And the residual activity (IKBKB (human); compound 1.0 µM)?
A: The residual activity was 98%.

Q: And the residual activity (PIM1 (human); compound 0.01 µM)?
A: Its residual activity is 99%.

Q: And the residual activity (PIM1 (human); compound 0.1 µM)?
A: The residual activity was 100%.

Q: And the residual activity (PIM1 (human); compound 1.0 µM)?
A: The residual activity was 98%.

Q: What about the residual activity (PLK1 (human); compound 0.01 µM) of the same molecule?
A: Its residual activity is 95%.

Q: What about the residual activity (PLK1 (human); compound 0.1 µM) of the same molecule?
A: Its residual activity is 113%.

Q: And the residual activity (MAPK9 (human); compound 0.01 µM)?
A: The residual activity was 117%.

Q: And the residual activity (MAPK9 (human); compound 0.1 µM)?
A: Its residual activity is 126%.

Q: What about the residual activity (MAPK9 (human); compound 1.0 µM) of the same molecule?
A: Its residual activity is 120%.

Q: And the residual activity (FLT1 (human); compound 0.01 µM)?
A: Its residual activity is 98%.

Q: And the residual activity (FLT1 (human); compound 0.1 µM)?
A: The residual activity was 108%.

Q: What about the residual activity (FLT1 (human); compound 1.0 µM) of the same molecule?
A: Its residual activity is 89%.

Q: And the residual activity (HIPK1 (human); compound 0.01 µM)?
A: Its residual activity is 102%.

Q: And the residual activity (HIPK1 (human); compound 0.1 µM)?
A: The residual activity was 105%.

Q: And the residual activity (HIPK1 (human); compound 1.0 µM)?
A: Its residual activity is 102%.

Q: What about the residual activity (MAPK11 (human); compound 0.01 µM) of the same molecule?
A: The residual activity was 113%.

Q: And the residual activity (MAPK11 (human); compound 0.1 µM)?
A: The residual activity was 129%.

Q: What about the residual activity (MAPK11 (human); compound 1.0 µM) of the same molecule?
A: Its residual activity is 109%.

Q: What about the residual activity (TBK1 (human); compound 0.01 µM) of the same molecule?
A: The residual activity was 110%.

Q: What about the residual activity (TBK1 (human); compound 0.1 µM) of the same molecule?
A: Its residual activity is 115%.

Q: And the residual activity (TBK1 (human); compound 1.0 µM)?
A: The residual activity was 109%.

Q: What about the residual activity (MAPK1 (human); compound 0.01 µM) of the same molecule?
A: The residual activity was 117%.

Q: What about the residual activity (MAPK1 (human); compound 0.1 µM) of the same molecule?
A: Its residual activity is 111%.

Q: What about the residual activity (MAPK1 (human); compound 1.0 µM) of the same molecule?
A: Its residual activity is 99%.

Q: What about the residual activity (NEK2 (human); compound 0.01 µM) of the same molecule?
A: Its residual activity is 118%.

Q: What about the residual activity (NEK2 (human); compound 0.1 µM) of the same molecule?
A: The residual activity was 118%.

Q: And the residual activity (NEK2 (human); compound 1.0 µM)?
A: Its residual activity is 106%.

Q: What about the residual activity (DYRK1A (human); compound 0.01 µM) of the same molecule?
A: The residual activity was 102%.

Q: And the residual activity (DYRK1A (human); compound 0.1 µM)?
A: Its residual activity is 107%.

Q: And the residual activity (DYRK1A (human); compound 1.0 µM)?
A: Its residual activity is 103%.

Q: And the residual activity (MAP2K1 (human); compound 0.01 µM)?
A: The residual activity was 86%.

Q: What about the residual activity (MAP2K1 (human); compound 0.1 µM) of the same molecule?
A: Its residual activity is 101%.

Q: And the residual activity (MAP2K1 (human); compound 1.0 µM)?
A: The residual activity was 84%.

Q: What about the residual activity (PIM3 (human); compound 0.01 µM) of the same molecule?
A: Its residual activity is 105%.

Q: And the residual activity (PIM3 (human); compound 0.1 µM)?
A: Its residual activity is 112%.

Q: What about the residual activity (PIM3 (human); compound 1.0 µM) of the same molecule?
A: The residual activity was 97%.

Q: And the residual activity (MST4 (human); compound 0.01 µM)?
A: Its residual activity is 112%.

Q: And the residual activity (MST4 (human); compound 0.1 µM)?
A: Its residual activity is 108%.

Q: And the residual activity (MST4 (human); compound 1.0 µM)?
A: Its residual activity is 119%.

Q: What about the residual activity (AURKB (human); compound 0.01 µM) of the same molecule?
A: Its residual activity is 105%.

Q: What about the residual activity (AURKB (human); compound 0.1 µM) of the same molecule?
A: The residual activity was 106%.

Q: And the residual activity (AURKB (human); compound 1.0 µM)?
A: Its residual activity is 83%.

Q: What about the residual activity (GCK (human); compound 0.01 µM) of the same molecule?
A: The residual activity was 109%.

Q: What about the residual activity (GCK (human); compound 0.1 µM) of the same molecule?
A: The residual activity was 116%.

Q: What about the residual activity (GCK (human); compound 1.0 µM) of the same molecule?
A: The residual activity was 101%.

Q: And the residual activity (PKN2 (human); compound 0.01 µM)?
A: The residual activity was 90%.

Q: And the residual activity (PKN2 (human); compound 0.1 µM)?
A: The residual activity was 102%.

Q: And the residual activity (PKN2 (human); compound 1.0 µM)?
A: The residual activity was 82%.

Q: What about the residual activity (MARK2 (human); compound 0.01 µM) of the same molecule?
A: The residual activity was 113%.

Q: What about the residual activity (MARK2 (human); compound 0.1 µM) of the same molecule?
A: The residual activity was 114%.

Q: And the residual activity (MARK2 (human); compound 1.0 µM)?
A: The residual activity was 109%.

Q: What about the residual activity (DYRK3 (human); compound 0.01 µM) of the same molecule?
A: The residual activity was 100%.

Q: And the residual activity (DYRK3 (human); compound 0.1 µM)?
A: Its residual activity is 103%.

Q: What about the residual activity (DYRK3 (human); compound 1.0 µM) of the same molecule?
A: Its residual activity is 93%.

Q: And the residual activity (TTK (human); compound 0.01 µM)?
A: Its residual activity is 90%.

Q: What about the residual activity (TTK (human); compound 0.1 µM) of the same molecule?
A: The residual activity was 98%.

Q: What about the residual activity (TTK (human); compound 1.0 µM) of the same molecule?
A: Its residual activity is 82%.

Q: What about the residual activity (GSK3B (human); compound 0.01 µM) of the same molecule?
A: Its residual activity is 108%.

Q: And the residual activity (GSK3B (human); compound 0.1 µM)?
A: Its residual activity is 111%.

Q: What about the residual activity (GSK3B (human); compound 1.0 µM) of the same molecule?
A: The residual activity was 109%.

Q: What about the residual activity (MAPKAPK3 (human); compound 0.01 µM) of the same molecule?
A: Its residual activity is 112%.

Q: And the residual activity (MAPKAPK3 (human); compound 0.1 µM)?
A: Its residual activity is 112%.

Q: And the residual activity (MAPKAPK3 (human); compound 1.0 µM)?
A: Its residual activity is 100%.
